Measured values taken from article PMC9722955 (Frontiers in Pharmacology, 2022).

Assays:
[1] = target: T1, recombinant human CYP46A1 (Homo sapiens, UniProt Q9Y6A2); assay: Inhibition of CYP46A1-catalysed testosterone 16β-hydroxylation; assay type: biochemical; conditions: for residual activity of CYP46A1: 10 μM lignan; for residual activity of CYP46A1 / IC50: testosterone 10 μM as substrate; for α: mixed inhibition model; for Ki: testosterone 2–150 μM; for Type of inhibition: testosterone as substrate
T1 construct: purchased Cypex (Dundee, Scotland, United Kingdom)
T1 sequence (Q9Y6A2 whole entry): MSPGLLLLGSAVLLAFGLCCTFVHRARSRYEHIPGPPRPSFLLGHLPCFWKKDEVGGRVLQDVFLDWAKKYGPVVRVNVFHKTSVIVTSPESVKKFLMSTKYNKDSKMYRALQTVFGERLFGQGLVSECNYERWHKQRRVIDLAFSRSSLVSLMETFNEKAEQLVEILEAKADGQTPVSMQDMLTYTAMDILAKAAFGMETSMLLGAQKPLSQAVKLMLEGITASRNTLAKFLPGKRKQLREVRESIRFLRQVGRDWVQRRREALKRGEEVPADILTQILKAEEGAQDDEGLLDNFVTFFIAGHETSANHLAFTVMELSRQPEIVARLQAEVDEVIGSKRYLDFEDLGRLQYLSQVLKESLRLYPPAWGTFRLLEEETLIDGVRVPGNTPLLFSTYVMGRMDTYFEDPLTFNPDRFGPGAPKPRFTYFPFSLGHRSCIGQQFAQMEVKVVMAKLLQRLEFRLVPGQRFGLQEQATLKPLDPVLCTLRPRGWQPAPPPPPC
Experimental: 16β-hydroxytestosterone formation catalyzed by CYP46A1 was conducted at conditions linear for the duration of incubation and protein concentration. […] After preliminary incubation at 37°C for 5 min, 10 μL NADPH (final concentration, 1 mM) was added to initiate the reaction for 10 min. The reaction was stopped by adding the same volume of acetonitrile containing 1 μM of the internal standard. The mixture was left on ice until it was centrifuged at 20,000×g for 20 min at 4°C. Aliquots of the supernatant were stored at −20°C until analysis. The possible inhibitory intensities of the sesame lignans were evaluated by quantifying the 16-OH-TST generated.
Testosterone 16β-hydroxylation reaction samples were injected into an API 3200 triple quadrupole mass spectrometer (Applied Biosystems, Concord, Ontario, Canada) and an Agilent HP1200 LC system (Agilent Technology Inc., CA, United States). The chromatographic separation was performed on a Hypersil ODS-BP column (150 mm × 2.1 mm, 5 μm; Dalian Elite Analytical Instruments Co. Ltd., China) at ambient temperature. IonSpray Voltage (IS): 4500 V; Temperature (TEM): 590°C; Ion Source Gas1 (GS1, N1): […]; Ion Source Gas2 (GS2, N2): […]; Curtain Gas (CUR): 30 psi; Collision Gas (CAD): 12 psi. MS/MS conditions for analyzed compounds are shown in Supplementary Table S1. Mobile phase A consisted of 0.1% formic acid in water; mobile phase B consisted of 0.1% formic acid in acetonitrile; the flow rate was 0.4 ml/min. The gradient elution program was 0–1 min, 95% A; 1–3 min, 95%–65% A; 3–5 min, 65%–35% A; 5–6 min, 35%–15% A; 6–8 min, 15% A; 15%–95% A, 8–8.1 min; 8.1–12 min, 95% A. 16β-hydroxytestosterone and Carbamazepine (internal standard) were monitored in the positive ion mode, and detected by fragment ions at m/z 305.2→97.2 and 237.1→194.2, respectively. LC-MS/MS data acquisition and integration were performed with Analyst 1.6.3 using the internal standard and peak-area ratios for calculation (linear regression, 1/x weighting).
The three equations and the inhibition constant were as described in our previously published methods ([Wu et al., 2017]). v=Vmax⋅S/Km⋅(1+I/Ki)+S (1) v=Vmax⋅S/(Km+S)⋅(1+I/Ki) (2) v=Vmax⋅S/Km⋅(1+I/Ki)+S⋅(1+I/α⋅Ki) (3) where v is the reaction velocity; S and I denote the substrate and inhibitor concentrations, respectively; K i represents the inhibition constant describing the affinity of the inhibitor for the enzyme; K m refers to the substrate concentration at half-maximal velocity (V max) of the reaction. The α value determines the degree of change in enzyme affinity for the substrate following the binding of the inhibitor. When α is less than 1, binding of an inhibitor […] substrate binding, and the mixed model is identical to non-competitive inhibition. When α is very large (α > 1), the binding of an inhibitor […] substrate binding, and the mixed model depicts competitive inhibition. The type of inhibition was determined by fitting the data to enzyme inhibition models. The goodness-of-fit of kinetic and inhibition models was assessed using R ^2 values and parameter S.D. estimates. Dixon and Lineweaver-Burk plots were also used to characterize the inhibition kinetics. Kinetic constants are reported as the mean ± S.D. of the parameter estimate.

[2] = tested on: CYP46A1; assay: Western blotting of CYP46A1 protein in h-CYP46A1-Neuro-2a cells; assay type: cell-based, human; conditions: 20 μM, 24 h
Experimental: MDCK-MDR1 cells and Neuro-2a-CYP46A1 cells were cultured in DMEM containing 10% (v/v) FBS, 1% nonessential amino acids, 100 U/mL penicillin G, and 100 μg/ml streptomycin, and incubated at 37°C in the presence of 5% CO2 and 95% humidity. The Neuro-2a-CYP46A1 cells were seeded into six-well plates at a density of 1 × 10^5 cells per well and cultured for 24 h. Drug intervention experiments were conducted by replacing the medium with a serum-free medium containing sesame ligands (20 μM) for 24 h.
The cells and tissues were harvested with lysis buffer and cleaved at 4°C for 20 min. All samples were centrifuged at 12,000 × g for 15 min at 4°C. The protein concentrations were quantified by BCA regent kits. Sodium dodecyl sulfate-polyacrylamide gel electrophoresis (SDS-PAGE) was used to separate the proteins, and they were then transferred to PVDF membranes. After incubation of the membranes with 5% non-fat milk for 2 h, they were then incubated with the primary antibodies at 4°C overnight. After washing three times, the membranes were incubated with the secondary antibody for 2 h. The protein bands were detected by a Tanon-5200 imaging system and the densities were analyzed by ImageJ software. The GAPDH antibody served as the internal control for sample loading.

[3] = tested on: CYP46A1 activity (24S-hydroxycholesterol); assay: 24S-hydroxycholesterol levels in rat plasma and brain (ELISA) after sesamin; assay type: in vivo; conditions: sesamin 60 mg/kg intragastric once daily, 4 weeks
Experimental: (§1) The experiments were reviewed and approved by the Experimental Animal Centre of Dalian Medical University. All rats were obtained from Liaoning Changsheng Biotechnology co., Ltd. All animal experiments complied with the ARRIVE guidelines and were carried out in accordance with the National Institutes of Health guide for the care and use of laboratory animals (NIH Publications No. […], revised 1978). Wistar rats were randomly divided into the administration group (n = 5) and the control group (n = 5). The rats were provided with laboratory standard animal feed and kept under a 12-h light cycle. Sesamin (60 mg/kg) was given by intragastric administration daily for 4 weeks; the control group was given an equivalent volume of olive oil. The rats were anesthetized with pentobarbital sodium (40 mg/kg) and blood samples and brain tissue samples were collected for further assays. The levels of 24S-hydroxycholesterol in rat plasma and brain tissues were measured by ELISA kits (Proteintech Group, Wuhan, China), according to the manufacturer’s instructions.

[4] = tested on: CYP46A1; assay: Western blotting of rat brain tissue, CYP46A1; assay type: in vivo; conditions: sesamin 60 mg/kg, 4 weeks, vs control
Experimental: as §1, with “assays.” for “assays. The levels of 24S-hydroxycholesterol in rat plasma and brain tissues were measured by ELISA kits (Proteintech Group, Wuhan, China), according to the manufacturer’s instructions.”
(§2) The cells and tissues were harvested with lysis buffer and cleaved at 4°C for 20 min. All samples were centrifuged at 12,000 × g for 15 min at 4°C. The protein concentrations were quantified by BCA regent kits. Sodium dodecyl sulfate-polyacrylamide gel electrophoresis (SDS-PAGE) was used to separate the proteins, and they were then transferred to PVDF membranes. […] The protein bands were detected by a Tanon-5200 imaging system and the densities were analyzed by ImageJ software. […]

[5] = tested on: HMGCR; assay: Western blotting of rat brain tissue, HMGCR; assay type: in vivo; conditions: sesamin 60 mg/kg, 4 weeks, vs control
Experimental: as §1, with “assays.” for “assays. The levels of 24S-hydroxycholesterol in rat plasma and brain tissues were measured by ELISA kits (Proteintech Group, Wuhan, China), according to the manufacturer’s instructions.”
as §2

[6] = tested on: NMDAR2A; assay: Western blotting of rat brain tissue, NMDAR2A; assay type: in vivo; conditions: sesamin 60 mg/kg, 4 weeks, vs control
Experimental: as §1, with “assays.” for “assays. The levels of 24S-hydroxycholesterol in rat plasma and brain tissues were measured by ELISA kits (Proteintech Group, Wuhan, China), according to the manufacturer’s instructions.”
as §2

[7] = tested on: NMDAR2B; assay: Western blotting of rat brain tissue, NMDAR2B; assay type: in vivo; conditions: sesamin 60 mg/kg, 4 weeks, vs control
Experimental: as §1, with “assays.” for “assays. The levels of 24S-hydroxycholesterol in rat plasma and brain tissues were measured by ELISA kits (Proteintech Group, Wuhan, China), according to the manufacturer’s instructions.”
as §2

[8] = tested on: CYP46A1 mRNA; assay: Quantitative real-time PCR of rat brain, CYP46A1 mRNA; assay type: in vivo; conditions: sesamin 60 mg/kg, 4 weeks, vs control
Experimental: as §1, with “experimental procedure was performed as described previously ([Wen et al., 2018]). Total brain RNA and cDNA synthesis were meausured with an RNAiso Plus Reagent Kit and SYBR Premix Ex Taq Kit, respectively (Takara Biotechnology, Dalian, China). Quantitative real-time PCR was performed using SYBR Green PCR Master Mix and an ABI prim 7500 Sequence Detection System (Applied Biosystems, United States). Primers used for RT-qPCR are shown” for “levels of 24S-hydroxycholesterol”, “Supplementary Table S2.” for “rat plasma and brain tissues were measured by ELISA kits (Proteintech Group, Wuhan, China), according to the manufacturer’s instructions.”

[9] = tested on: HMGCR mRNA; assay: Quantitative real-time PCR of rat brain, HMGCR mRNA; assay type: in vivo; conditions: sesamin 60 mg/kg, 4 weeks, vs control
Experimental: as §1, with “experimental procedure was performed as described previously ([Wen et al., 2018]). Total brain RNA and cDNA synthesis were meausured with an RNAiso Plus Reagent Kit and SYBR Premix Ex Taq Kit, respectively (Takara Biotechnology, Dalian, China). Quantitative real-time PCR was performed using SYBR Green PCR Master Mix and an ABI prim 7500 Sequence Detection System (Applied Biosystems, United States). Primers used for RT-qPCR are shown” for “levels of 24S-hydroxycholesterol”, “Supplementary Table S2.” for “rat plasma and brain tissues were measured by ELISA kits (Proteintech Group, Wuhan, China), according to the manufacturer’s instructions.”

[10] = tested on: CYP2C9; conditions: read-out: value of competitive inhibition of 7-position hydroxylation of S-warfarin, ref Fujii et al., 2020; cited from earlier work
[11] = Membrane permeability assay across MDCK-MDR1 monolayer; conditions: dog
Experimental: (§3) To estimate the permeability of the sesamin lignans across the blood-brain barrier (BBB), a membrane permeability assay was conducted with an MDCK-MDR1 monolayer. The transport assays were performed by seeding MDCK-MDR1 cells on a tissue culture plate insert (BIOFIL®, PC membrane, 0.33 cm^2 surface area, 0.4 μm pore size) in 24-well companion plates for 5 days. The culture medium was changed once every 2–3 days. To confirm the confluency of the cell monolayer, the trans-epithelial electrical resistance (TEER) of each well was measured before the transport assay using a resistance meter (Millipore, Millicell® ERS-2, United States). […] The cell monolayer was gently washed with Hank’s Balanced Salt Solution (HBSS) at 37°C and the transwell chamber was pre-incubated for 30 min. […] After 120 min of incubation, a 50 μL sample was removed from the receiver compartment and uniformly mixed with 50 μL methanol. Then, it was centrifuged at 20,000 ×g at 4°C for 20 min. All available samples in the receiver compartments were injected into the HPLC system for analysis. The HPLC system comprised an Agilent MSD/MS system controller, two 1,260 series pumps, a 1,200 series autosampler, a 1,200 series variable wavelength detector, and an elite ODS-BP analysis column (4.6 × 200 mm, 5 μm). The mobile phase for sesame lignans was methanol/water (80/20, v/v), and the flow rate was 0.8 ml/min with a detector wavelength of 290 nm. […] Ultraviolet detection was performed at 230 nm. The permeability (P app) and efflux ratio (ER) were calculated as follows (Eqs. 4, 5) ([Grès et al., 1998]). Papp=dQ/dt⋅1/A⋅C0 (4) In Eq. (4), A denotes the area of mass transfer, C0 represents the donor concentration of compound in the upper medium, and dQ/dt is the rate of transmembrane transportation. […] ER=Papp, B→A/Papp, A→B (5)
(§4) In Eq. (5), P app, B→A denotes the basal to apical (B-A) transport rate, and P app, A→B is the apical to basal (A-B) transport rate.

[12] = in vitro; conditions: dog, MDCK-MDR1
Experimental: as §3, §4

Type of inhibition ([1]; listed as sesamolin)	Papp at 120 min, 20 μM [12]	SMILES	residual activity of CYP46A1 [1]	α [1]	IC50 [1]	Ki [1]	Type of inhibition [1]	Type of inhibition ([1]; listed as sesamin)	reduction of CYP46A1 protein level vs control [2]	decrease of 24S-HC level in brain [3]	plasma concentration of 24S-HC [3]	reduction of 24S-HC level in plasma [3]	reduction of CYP46A1 protein expression in rat brain tissue [4]	reduction of HMGCR protein expression in rat brain tissue [5]	reduction of NMDAR2A protein expression in rat brain tissue [6]	reduction of NMDAR2B protein expression in rat brain tissue [7]	change of CYP46A1 mRNA expression in rat brain [8]	change of HMGCR mRNA expression in rat brain [9]	Ki [10]	Papp at 120 min, 20 μM [11]
–	–	c1cc2c(cc1[C@H]1OC[C@H]3[C@@H]1CO[C@@H]3c1ccc3c(c1)OCO3)OCO2 [Sesamin, sesamin]	36.2%	6.491	6.02 µM	6.87 ± 1.07 µM	mixed inhibition	mixed partial competitive inhibition	28.1%	29.3%	45.747 ng/mL	55.88%	27.3%	31.6%	22.1%	43.5%	no significant changes	no significant changes	13.1 µM	6.75 ×10⁻⁶ cm/s
–	–	Oc1ccc2c(c1)OCO2 [Sesamol, sesamol]	59.4%	–	21.3 ± 4.74 µM	18.7 ± 0.72 µM	Non-competitive	–	26.1%	–	–	–	–	–	–	–	–	–	–	35.3 ×10⁻⁶ cm/s
mixed partial competitive inhibition	20.5 ×10⁻⁶ cm/s	c1cc2c(cc1O[C@H]1OC[C@H]3[C@@H]1CO[C@@H]3c1ccc3c(c1)OCO3)OCO2 [Sesamolin, sesamolin]	25.8%	4.891	3.34 ± 0.543 µM	4.02 ± 0.786 µM	Mixed	–	57.1%	–	–	–	–	–	–	–	–	–	–	–
